What was measured:
Format in all cases: cell-based
[1] = system: KM12 cells; experiment: KM12 cells proliferation inhibition (MTS), mechanism-based TRK assay; conditions: Homo sapiens, 72 h
Excerpt: (§1) MTS testing kit was purchased from Promega (Madison, Wis., USA). The RPMI-1640, Fetal bovine serum and Penicillin-Streptomycin were purchased from Gibco (San Francisco, Calif., USA). Dimethyl sulfoxide (DMSO) and Puromycin were purchased from Sigma (St. Louis, Mo., USA). Mouse interleukin-3 (IL-3) was purchased from Cell signaling Technology (Boston, Mass., USA).
To investigate whether a compound is able to inhibit the activity of TRK in cells, a mechanism-based assay using KM12 cells was developed. In this assay, inhibition of TRK was detected by the inhibition of KM12 cells proliferation. KM12 cells were cultured in culture flasks to 40-80% confluence in RPMI-1640 plus 10% fetal bovine serum. Cells were collected and plated onto 96-well plates at 1000 cells/well. Plates were incubated at 37° C., with 5% CO2 for 4 h. Compounds were added to the plates, the final compound concentrations were […], 123.5, 41.2, 13.7, 4.6 and 1.5 nM. Place plates at 37° C., with 5% CO2 for KM12 cells 72 h. 20 μl MTS/100 μl medium mixture solution were added to each well and incubate the plates for exactly 2 h. Stop the reaction by adding 25 μl 10% SDS per well. Measure absorbance at 490 nm and 650 nm (reference wavelength). IC50 was calculated using GraphPad Prism 5.0.

[2] = molecular target: T1, ETV6-TRKC (Homo sapiens, UniProt Q16288); experiment: Engineered Ba/F3 cell proliferation inhibition (MTS), ETV6-TRKC; conditions: Ba/F3-ETV6-TRKC cells, 72 h
T1 construct: ETV6 (fusion partner, N-terminal part); expressed in transfected cells; the other entry of the earlier key: ETV6 (P41212, Transcription factor ETV6)
Excerpt: as §1
(§2) To investigate whether a compound is able to inhibit the activity of TRK fusion mutation in cells, a mechanism-based assay using engineered Ba/F3 cell lines stably overexpressing oncogenic rearrangement or gene mutation of TRK (TPM3-TRKA, TPM3-TRKA-G595R, AFAP1-TRKB, ETV6-TRKC and ETV6-TRKC-G623R) were developed. In this assay, inhibition of TRK fusion mutation was detected by the cell proliferation inhibition of engineered Ba/F3 cells. Engineered Ba/F3 cells were cultured in culture flasks to 40-80% confluence in RPMI-1640 supplemented with 10% fetal bovine serum, 2 ug/mL puromycin. Cells were collected and plated onto 96-well plates at desired cell density (Ba/F3-TPM3-TRKA: 3×10^4/mL, Ba/F3-TPM3-TRKA-G595R: 1×10^5/mL, Ba/F3-AFAP1-TRKB: 1×10^5/mL, Ba/F3-ETV6-TRKC: 3×10^4/mL, Ba/F3-ETV6-TRKC-G623R: 3×10^4/mL). Plates were incubated at 37° C., with 5% CO2 for 4 h. Compounds were then added to the plates with the final compound concentrations of 10000, 3333, 1111, […], 123, 41.2, 13.7, 4.6 and 1.5 nM. Plates were incubated at 37° C., with 5% CO2 for 72 h. A mixture of 20 μl MTS/100 μl medium were added to each well and the plates were incubated at 37° C., with 5% CO2 for exactly 2 h. The reaction was stopped by adding 25 μl of 10% SDS per well. The absorbance was measured at 490 nm and 650 nm (reference wavelength). IC50 was calculated using GraphPad Prism 5.0 software.

[3] = molecular target: T2, TPM3-TRKA (Homo sapiens, UniProt P04629); experiment: Engineered Ba/F3 cell proliferation inhibition (MTS), TPM3-TRKA; conditions: Ba/F3-TPM3-TRKA cells, 72 h
T2 construct: TPM3 (fusion partner, N-terminal part); expressed in transfected cells; the other entry of the earlier key: TPM3 (P06753, Tropomyosin alpha-3 chain)
Excerpt: as §1, §2

[4] = molecular target: T3, TPM3-TRKA-G595R (Homo sapiens, UniProt P04629, G595R); experiment: Engineered Ba/F3 cell proliferation inhibition (MTS), TPM3-TRKA-G595R; conditions: Ba/F3-TPM3-TRKA-G595R cells, 72 h
T3 construct: TPM3 (fusion partner, N-terminal part); expressed in transfected cells; the other entry of the earlier key: TPM3 (P06753, Tropomyosin alpha-3 chain)
Excerpt: as §1, §2

T3 sequence (P04629 510-796 G595R limits assumed): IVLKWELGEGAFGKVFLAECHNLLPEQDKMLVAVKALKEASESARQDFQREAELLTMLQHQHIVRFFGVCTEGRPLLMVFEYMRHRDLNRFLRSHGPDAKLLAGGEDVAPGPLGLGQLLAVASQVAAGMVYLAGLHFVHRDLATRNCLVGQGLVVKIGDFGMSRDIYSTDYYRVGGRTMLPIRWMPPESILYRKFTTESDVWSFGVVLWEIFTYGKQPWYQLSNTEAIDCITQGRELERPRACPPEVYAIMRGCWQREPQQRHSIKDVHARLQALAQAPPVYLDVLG
T1 sequence (Q16288 530-825 isoform Q16288-3 limits assumed): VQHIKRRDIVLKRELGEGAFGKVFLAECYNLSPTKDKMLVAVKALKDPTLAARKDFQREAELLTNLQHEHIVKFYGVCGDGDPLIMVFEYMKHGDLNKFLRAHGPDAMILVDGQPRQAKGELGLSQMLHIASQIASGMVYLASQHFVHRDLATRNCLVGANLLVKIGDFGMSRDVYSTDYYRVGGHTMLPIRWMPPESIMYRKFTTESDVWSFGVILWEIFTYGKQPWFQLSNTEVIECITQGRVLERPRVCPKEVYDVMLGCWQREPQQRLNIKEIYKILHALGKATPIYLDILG
T2 sequence (P04629 510-796 limits assumed): as the sequence (P04629 510-796 G595R limits assumed) above, with R86G counted along it

| SMILES | IC50 [1] [nM] | IC50 [2] [nM] | IC50 [3] [nM] | IC50 [4] [nM] |
| --- | --- | --- | --- | --- |
| Cc1ccc(C(=O)Nc2cnn3ccc(N4CC[C@H]5C[C@]54c4cc(F)ccc4F)nc23)nc1 [Example 18, N-(5-((1R,5S)-1-(2,5-difluorophenyl)-2-azabicyclo [3.1,0]hexan-2-yl)pyrazolo[1,5-a]pyrimidin-3-yl)-5-methylpicolinamide] | 2 | 1 | 33 | – |
| O=C(Nc1cnn2ccc(N3CC[C@H]4C[C@]43c3cc(F)ccc3F)nc12)c1ccc(F)cn1 [Example 19, N-(5-((1R,5S)-1-(2,5-difluorophenyl)-2-azabicyclo [3.1.0]hexan-2-yl)pyrazolo[1,5-a]pyrimidin-3-yl)-5-fluoropicolinamide] | 1 | 1 | 2 | – |
| O=C(Nc1cnn2ccc(N3CC[C@H]4C[C@]43c3cc(F)ccc3Cl)nc12)N1CC[C@H](O)C1 [Example 2, (S)—N-(5-((1R,5S)-1-(2-chloro-5-fluorophenyl)-2-azabicyclo[3.1.0]hexan-2-yl)pyrazolo[1,5-a]pyrimidin-3-yl)-3-hydroxypyrrolidine-1-carboxamide] | 42 | 7 | 44 | – |
| CC(C)c1nnc(-c2cnn3ccc(N4CC[C@H]5C[C@]54c4cc(F)ccc4F)nc23)o1 [Example 5, 2-(5-((1R,5S)-1-(2,5-difluorophenyl)-2-azabicyclo[3.1.0]hexan-2-yl)pyrazolo[1,5-a]pyrimidin-3-yl)-5-isopropyl-1,3,4-oxadiazole] | 9 | – | 6 | 40 |
| O=C(Nc1cnn2ccc(N3CC[C@H]4C[C@]43c3cc(F)ccc3F)nc12)N1CC[C@@H](O)C1 [Example 7, (R)-N-(5-((1R,5S)-1-(2,5-difluorophenyl)-2-azabicyclo[3.1.0]hexan-2-yl)pyrazolo[1,5-a]pyrimidin-3-yl)-3-hydroxypyrrolidine-1-carboxamide] | 20 | 3 | 3 | – |
| O=C(Nc1cnn2ccc(N3CC[C@H]4C[C@]43c3cc(F)ccc3F)nc12)N1CCC(F)(F)C1 [Example 12, N-(5-((1R,5S)-1-(2,5-difluorophenyl)-2-azabicyclo [3.1.0]hexan-2-yl)pyrazolo[1,5-a]pyrimidin-3-yl)-3,3-difluoropyrrolidine-1-carboxamide] | 2 | 9 | – | – |
| O=C(Nc1cnn2ccc(N3CC[C@H]4C[C@]43c3cc(F)ccc3Cl)nc12)N1CC[C@@H](O)C1 [Example 3, (R)—N-(5-((1R,5S)-1-(2-chloro-5-fluorophenyl)-2-azabicyclo[3.1.0]hexan-2-yl)pyrazolo[1,5-a]pyrimidin-3-yl)-3-hydroxypyrrolidine-1-carboxamide] | 36 | 17 | 47 | – |
| O=C(Nc1cnn2ccc(N3CC[C@H]4C[C@]43c3cc(F)ccc3F)nc12)c1ncc(F)cn1 [Example 21, N-(5-((1R,5S)-1-(2,5-difluorophenyl)-2-azabicyclo [3.1.0]hexan-2-yl)pyrazolo[1,5-a]pyrimidin-3-yl)-5-fluoropyrimidine-2-carboxamide] | 24 | 1 | 10 | – |
| O=C1c2ccccc2CN1c1cnn2ccc(N3CC[C@H]4C[C@]43c3cc(F)ccc3F)nc12 [Example 28, 2-(5-((1R,5S)-1-(2,5-difluorophenyl)-2-azabicyclo [3.1.0]hexan-2-yl)pyrazolo[1,5-a]pyrimidin-3-yl)isoindolin-1-one] | – | 2 | 19 | – |
| O=C(Nc1cnn2ccc(N3CC[C@H]4C[C@]43c3cc(F)ccc3F)nc12)N1CCC(F)C1 (stereo in doubt) [Example 10, (R)-N-(5-((1R,5S)-1-(2,5-difluorophenyl)-2-azabicyclo[3.1.0]hexan-2-yl)pyrazolo [1,5-a]pyrimidin-3-yl)-3-fluoropyrrolidine-1-carboxamide] | 23 | 2 | – | – |
| CO[C@H]1CCN(C(=O)Nc2cnn3ccc(N4CC[C@H]5C[C@]54c4cc(F)ccc4F)nc23)C1 [Example 9, (S)-N-(5-((1R,5S)-1-(2,5-difluorophenyl)-2-azabicyclo[3.1.0]hexan-2-yl)pyrazolo [1,5-a]pyrimidin-3-yl)-3-methoxypyrrolidine-1-carboxamide] | 42 | 4 | – | – |
| O=C(Nc1cnn2ccc(N3CC[C@H]4C[C@]43c3cc(F)ccc3F)nc12)c1ccccn1 [Example 15, N-(5-((1R,5S)-1-(2,5-difluorophenyl)-2-azabicyclo [3.1.0]hexan-2-yl)pyrazolo[1,5-a]pyrimidin-3-yl) picolinamide] | 1 | 1 | 1 | 18 |
| O=C(Nc1cnc2ccc(N3CC[C@H]4C[C@]43c3cc(F)ccc3F)nn12)N1CC[C@@H](O)C1 [Example 8, (R)-N-(6-((1R,5S)-1-(2,5-difluorophenyl)-2-azabicyclo[3.1.0]hexan-2-yl)imidazo[1,2-b]pyridazin-3-yl)-3-hydroxypyrrolidine-1-carboxamide] | 25 | 5 | 5 | – |
| Cc1cccnc1C(=O)Nc1cnn2ccc(N3CC[C@H]4C[C@]43c3cc(F)ccc3F)nc12 [Example 17, N-(5-((1R,5S)-1-(2,5-difluorophenyl)-2-azabicyclo [3.1.0]hexan-2-yl)pyrazolo[1,5-a]pyrimidin-3-yl)-3-methylpicolinamide] | 1 | 1 | 2 | – |
| Cc1cccc(C(=O)Nc2cnn3ccc(N4CC[C@H]5C[C@]54c4cc(F)ccc4F)nc23)n1 [Example 16, N-(5-((1R,5S)-1-(2,5-difluorophenyl)-2-azabicyclo [3.1.0]hexan-2-yl)pyrazolo[1,5-a]pyrimidin-3-yl)-6-methylpicolinamide] | 1 | 1 | 1 | 5 |
| Cc1cnc(C(=O)Nc2cnn3ccc(N4CC[C@H]5C[C@]54c4cc(F)ccc4F)nc23)nc1 [Example 20, N-(5-((1R,5S)-1-(2,5-difluorophenyl)-2-azabicyclo [3.1.0]hexan-2-yl)pyrazolo[1,5-a]pyrimidin-3-yl)-5-methylpyrimidine-2-carboxamide] | 6 | 1 | 14 | 67 |
| O=C(Nc1cnc2ccc(N3CC[C@H]4C[C@]43c3cc(F)ccc3F)nn12)N1CC[C@H](O)C1 [Example 4, (S)—N-(6-((1R,5S)-1-(2,5-difluorophenyl)-2-azabicyclo[3.1.0]hexan-2-yl)imidazo[1,2-b]pyridazin-3-yl)-3-hydroxypyrrolidine-1-carboxamide] | 2 | 1 | 5 | – |
| O=C(Nc1cnn2ccc(N3CC[C@H]4C[C@]43c3cc(F)ccc3F)nc12)N1CC[C@@H](F)C1 [Example 11, (R)-N-(5-((1R,5S)-1-(2,5-difluorophenyl)-2-azabicyclo[3.1.0]hexan-2-yl)pyrazolo [1,5-a]pyrimidin-3-yl)-3-fluoropyrrolidine-l-carboxamide] | 53 | – | – | – |
| O=C(Nc1cnn2ccc(N3CC[C@H]4C[C@]43c3cc(F)ccc3F)nc12)c1ccc(Cl)cn1 [Example 24, 5-chloro-N-(5-((1R,5S)-1-(2,5-difluorophenyl)-2-azabicyclo[3.1.0]hexan-2-yl)pyrazolo[1,5-a]pyrimidin-3-yl)picolinamide] | 38 | 16 | – | – |
